Source: article PMC6838142, “Nano-Antagonist Alleviates Inflammation and Allows for MRI of Atherosclerosis” (Nanotheranostics, 2019)

Tested on: RAW cells
Assay: Fluorescence microscopy of binding and uptake in RAW cells
Type: cell-based, mouse
Excerpt: Figure 1 Screening identifies CCTV as an anti-inflammatory nanoparticle with high affinity for CC chemokine receptor 2. A) A screening of a small library of nanoparticles in lipopolysaccharide (LPS)-stimulated macrophage reporter cells (RAW-Blue) identified CCTV, which downregulates nuclear factor-kappa B (NF-κB) activity. Each point on the plot represents a relative activity of NF-κB (X-coordinate) and corresponding nanoparticle content per mg of cell protein (Y-coordinate) calculated from nanoparticle fluorescence. […] Dexamethasone (Dex) is an NF-κB inhibitor and was used as a positive control. Vehicle-treated and unstained (US) cells served as a negative control. B) CCTV binding to the cell surface was validated in RAW cells using fluorescence microscopy. The cells were stained at 4 °C or room temperature for 30 min with CCTV or vehicle nanoparticles (sudo-colored green). Lysosomes were visualized after staining with LAMP1 antibody (red). Nuclei were stained using Hoechst 33342 (blue). C) The uptake of CCTV was inhibited in the presence of 5 µM cytochalasin D (cyto D). DMSO served as vehicle control. Calcein AM was used for whole cell staining. D) CCTV binding to a receptor on the cell surface was studied by flow cytometry in the presence and absence of the excess (1 mM) of the free peptide. E) The Basic Local Alignment Search Tool (BLAST) analysis determined that CCTV peptide sequence repeats in mouse and human CC chemokine receptor family. Only the first 50 amino acids are shown. F) Chemical structure of CCTV and its mirror analog VTCC and their possible conjugation strategies that include N- (N-term.) and C-terminus (C-term.) as well as sulfhydryl attachment. […]
For a targeted nanotherapy to be effective, the nanoparticles must have affinity to a specific cell type, usually determined by cell surface binding. […] Thus, we used the mouse macrophage reporter cell line RAW-Blue that allowed for monitoring activity of Nuclear Factor-kappa B (NF-kB) and also enabled In vitro quantitation of nanoparticle binding to the cell surface. […]

Substance: CCTV
- uptake in presence of cytochalasin D (5 µM cytochalasin D, DMSO vehicle control): inhibited
- cell-surface binding at 4oC (RAW cells, 4 °C, 30 min, vs vehicle nanoparticles): rapidly bound to the cell surface
- uptake at room temperature (RAW cells, room temperature, LAMP1 co-staining): mediated by endocytosis
